Source: patent US8119636B2, “Pyrrolopyrazine kinase inhibitors” (Roche Palo Alto LLC, priority 2008, dated 2012)

| SMILES | melting point |
| --- | --- |
| Cc1ccccc1C(O)c1cnc2[nH]cc(C(=O)C(C)(C)C)c2n1 (stereo not shown) [Compound I-16, 1-[2-(Hydroxy-o-tolyl-methyl)-5H-pyrrolo[2,3-b]pyrazin-7-yl]-2,2-dimethyl-propan-1-one] | 181 to 183 °C |
| CC1(C(=O)c2c[nH]c3ncc(Br)nc23)CCCCC1 [Compound I-7, (2-Bromo-5H-pyrrolo[2,3-b]pyrazin-7-yl)-(1-methyl-cyclohexyl)-methanone] | 198 to 199 °C |
| CC1(C(=O)c2c[nH]c3ncc(Br)nc23)CCCCCC1 [Compound I-24, (2-Bromo-5H-pyrrolo[2,3-b]pyrazin-7-yl)-(1-methyl-cycloheptyl)-methanone] | 197.7 to 198.2 °C |
| CC(C)(C)C(=O)c1c[nH]c2ncc(C(O)c3cccnc3)nc12 (stereo not shown) [Compound I-19, 1-[2-(Hydroxy-pyridin-3-yl-methyl)-5H-pyrrolo[2,3-b]pyrazin-7-yl]-2,2-dimethyl-propan-1-one] | 192 to 194 °C |
| CC(C)(C)C(=O)c1c[nH]c2ncc(C(O)c3ccccc3)nc12 (stereo not shown) [Compound I-17, 1-[2-(Hydroxy-phenyl-methyl)-5H-pyrrolo[2,3-b]pyrazin-7-yl]-2,2-dimethyl-propan-1-one] | 168 to 170 °C |
| CC(C)(C)C(=O)c1c[nH]c2ncc(C(O)c3ccncc3)nc12 (stereo not shown) [Compound I-18, 1-[2-(Hydroxy-pyridin-4-yl-methyl)-5H-pyrrolo[2,3-b]pyrazin-7-yl]-2,2-dimethyl-propan-1-one] | 189.1 to 194.9 °C |

Now from value to compound:

| melting point | SMILES |
| --- | --- |
| 183 to 187.5 °C | CC(C)CC(=O)c1c[nH]c2ncc(Br)nc12 [Compound I-1, 1-(2-Bromo-5H-pyrrolo[2,3-b]pyrazin-7-yl)-3-methyl-butan-1-one] |
| 213 to 214 °C | CC(C)(C)C(=O)c1c[nH]c2ncc(Br)nc12 [Compound I-8, 1-(2-Bromo-5H-pyrrolo[2,3-b]pyrazin-7-yl)-2,2-dimethyl-propan-1-one] |
| 209 to 210 °C | CC(C)(C)C(=O)c1c[nH]c2ncc(Cl)nc12 [Compound I-6, 1-(2-Chloro-5H-pyrrolo[2,3-b]pyrazin-7-yl)-2,2-dimethyl-propan-1-one] |
| 215 to 216 °C | CCc1cnc2[nH]cc(C(=O)C(C)(C)C)c2n1 [Compound I-12, 1-(2-Ethyl-5H-pyrrolo[2,3-b]pyrazin-7-yl)-2,2-dimethyl-propan-1-one] |
| 148 to 150 °C | CC(C)C(O)c1cnc2[nH]cc(C(=O)C(C)(C)C)c2n1 (stereo not shown) [Compound I-15, 1-[2-(1-Hydroxy-2-methyl-propyl)-5H-pyrrolo[2,3-b]pyrazin-7-yl]-2,2-dimethyl-propan-1-one] |
| 229 to 231 °C | C#Cc1cnc2[nH]cc(C(=O)C(C)(C)C)c2n1 [Compound I-11, 1-(2-Ethynyl-5H-pyrrolo[2,3-b]pyrazin-7-yl)-2,2-dimethyl-propan-1-one] |
| 278 to 279 °C | CC(C)NC(=O)c1c[nH]c2ncc(Cl)nc12 [Compound I-3, 2-Chloro-5H-pyrrolo[2,3-b]pyrazine-7-carboxylic acid isopropylamide] |
